Measurements published in patent US20260027104A1, “NOVEL NAPHTHYL AND ISOQUINOLINE SULFONAMIDE DERIVATIVES” (Hoffmann-La Roche Inc., priority 2022, published 2026).

Target: human GPR17 short isoform (Homo sapiens, UniProt Q13304)
Test: hGPR17 cAMP assay (GPR17 cAMP Assay Protocol, antagonist mode)
Assay type: cell-based
Conditions: CHO-K1 cells stably expressing untagged human GPR17 short isoform; EC80 of agonist MDL29,951; forskolin 15 μM; 30 min, room temperature; TR-FRET cAMP readout
Method: GPR17 cAMP Assay Protocol:
CHO-K1 cells stably expressing vector containing untagged human GPR17 short isoform (Roche) were cultured at 37° C./5% CO2 in DMEM (Dulbecco's Modified Eagle Medium):F-12 (1:1) supplemented with 10% foetal bovine serum and 400 μg/ml Geneticin.
Changes in intracellular cyclic adenosine monophosphate (cAMP) levels were quantified using the Nano-TRF Detection Assay kit (Roche Diagnostics, Cat. No. 05214386001). This assay allows for direct cAMP quantification in a homogeneous solution. cAMP is detected based on time-resolved fluorescence energy transfer (TR-FRET) and competitive binding of ruthenylated cAMP and endogenous cAMP to an anti-cAMP monoclonal antibody labeled with AlexaFluor-700. The Ruthenium complex serves as the FRET donor and transfers energy to AlexaFluor-700. The FRET signal is inversely proportional to the cAMP concentration.
CHO-GPR17S cells were detached with Accutase and resuspended in assay buffer consisting of Hank's Balanced Salt Solution (HBSS), 10 mM HEPES (4-(2-hydroxyethyl) piperazine-1-ethanesulfonic acid solution) and 0.1% bovine serum albumin (pH 7.4). The cells were seeded in black 384-well plates (Corning) at a density of 10′000 cells/20 μl assay buffer until the addition of compounds.
Test antagonist compounds were serially diluted in dimethyl sulfoxide (DMSO) and spotted in 384-well plates. The compounds were then diluted in BSS buffer supplemented with an EC80 concentration of MDL29,951 (3-(2-Carboxy-4,6-dichloroindol-3-yl)propionic acid) (GPR17 agonist) plus 3-Isobutyl-1-methylxanthine (IBMX) (0.5 mM final concentration) and added to the cells at room temperature. Forskolin (15 μM final concentration) was added 5 minutes after the test compounds and the cells were incubated at room temperature for 30 minutes. The assay was stopped by adding cAMP detection mix (containing detergents for cell lysis) for 90 minutes at room temperature.
Cellular cAMP was measured using a Paradigm reader (Molecular Devices). The raw data was used to calculate the FRET signal based on the assay's P-factor as per cAMP kit instructions. The data was normalized to the maximal activity of a reference antagonist and dose response curves were fitted to the percent activity of the test compounds using a sigmoidal dose response model (Genedata Screener).
Results in the hGPR17 cAMP assay are provided for compounds of formula I in Table 1

human GPR17 short isoform, sequence (Q13304 29-367): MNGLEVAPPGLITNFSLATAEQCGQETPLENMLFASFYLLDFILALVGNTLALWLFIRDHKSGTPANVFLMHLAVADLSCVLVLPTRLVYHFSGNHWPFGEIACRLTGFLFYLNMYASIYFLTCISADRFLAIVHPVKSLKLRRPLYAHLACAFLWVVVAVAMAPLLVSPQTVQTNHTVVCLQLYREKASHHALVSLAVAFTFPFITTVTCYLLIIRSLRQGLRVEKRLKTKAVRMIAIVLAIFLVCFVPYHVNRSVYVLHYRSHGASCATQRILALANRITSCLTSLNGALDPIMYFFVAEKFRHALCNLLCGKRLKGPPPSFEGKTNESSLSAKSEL

SMILES | IC50 [nM]
N#CCc1cc(F)c(NS(=O)(=O)c2cccc3ccccc23)cc1F [Example 1, N-(4-(cyanomethyl)-2,5-difluorophenyl)naphthalene-1-sulfonamide] | 282
COc1nc(OCC(F)F)c(F)cc1NS(=O)(=O)c1cccc2ccccc12 [Example 2, N-[6-(2,2-difluoroethoxy)-5-fluoro-2-methoxy-3-pyridyl]naphthalene-1-sulfonamide] | 85
N#CCc1cc(F)c(NS(=O)(=O)c2cccc3nc(Cl)ccc23)cc1F [Example 3, 2-chloro-N-[4-(cyanomethyl)-2,5-difluoro-phenyl]quinoline-5-sulfonamide] | 217
COc1nc(C2CC2)c(F)cc1NS(=O)(=O)c1cccc2nc(Cl)ccc12 [Example 4, 2-chloro-N-(6-cyclopropyl-5-fluoro-2-methoxy-3-pyridyl)quinoline-5-sulfonamide] | 45
COc1nc(CC#N)c(F)cc1NS(=O)(=O)c1cccc2nc(Cl)ccc12 [Example 5, 2-chloro-N-[6-(cyanomethyl)-5-fluoro-2-methoxy-3-pyridyl]quinoline-5-sulfonamide] | 19
COc1nc(OC(F)F)c(F)cc1NS(=O)(=O)c1cccc2nc(Cl)ccc12 [Example 6, 2-chloro-N-[6-(difluoromethoxy)-5-fluoro-2-methoxy-3-pyridyl]quinoline-5-sulfonamide] | 49
COc1nc(C2COC2)c(F)cc1NS(=O)(=O)c1cccc2nc(Cl)ccc12 [Example 7, 2-chloro-N-[5-fluoro-2-methoxy-6-(oxetan-3-yl)-3-pyridyl]quinoline-5-sulfonamide] | 431
COc1nc(NS(=O)(=O)c2cccc3nc(Cl)ccc23)nc(OC)c1CC(F)F [Example 8, 2-chloro-N-[5-(2,2-difluoroethyl)-4,6-dimethoxy-pyrimidin-2-yl]quinoline-5-sulfonamide] | 174
COc1nc(NS(=O)(=O)c2cccc3nc(Cl)ccc23)c(F)cc1OCC(F)F [Example 9, 2-chloro-N-[5-(2,2-difluoroethoxy)-3-fluoro-6-methoxy-2-pyridyl]quinoline-5-sulfonamide] | 495
COc1nc(OCC(F)F)c(F)cc1NS(=O)(=O)c1cccc2nc(Cl)ccc12 [Example 10, 2-chloro-N-[6-(2,2-difluoroethoxy)-5-fluoro-2-methoxy-3-pyridyl]quinoline-5-sulfonamide] | 28
O=S(=O)(Nc1cc(F)c(OC(F)F)nc1OC(F)F)c1cccc2nc(Cl)ccc12 [Example 11, N-[2,6-bis(difluoromethoxy)-5-fluoro-3-pyridyl]-2-chloro-quinoline-5-sulfonamide] | 111
N#CCc1cc(F)c(NS(=O)(=O)c2cncc3cc(Cl)ccc23)cc1F [Example 12, 7-chloro-N-[4-(cyanomethyl)-2,5-difluoro-phenyl]isoquinoline-4-sulfonamide] | 260
COc1nc(OC(F)F)c(F)cc1NS(=O)(=O)c1cncc2cc(Cl)ccc12 [Example 13, 7-chloro-N-[6-(difluoromethoxy)-5-fluoro-2-methoxy-3-pyridyl]isoquinoline-4-sulfonamide] | 92
COc1nc(NS(=O)(=O)c2cncc3cc(Cl)ccc23)c(F)cc1OCC(F)F [Example 14, 7-chloro-N-[5-(2,2-difluoroethoxy)-3-fluoro-6-methoxy-2-pyridyl]isoquinoline-4-sulfonamide] | 415
COc1nc(OCC(F)F)c(F)cc1NS(=O)(=O)c1cncc2cc(Cl)ccc12 [Example 15, 7-chloro-N-[6-(2,2-difluoroethoxy)-5-fluoro-2-methoxy-3-pyridyl]isoquinoline-4-sulfonamide] | 11
COc1nc(OCC(F)F)c(F)cc1NS(=O)(=O)c1cccc2c1CCC(C)O2 (centres unmarked) [Example 16, N-[6-(2,2-difluoroethoxy)-5-fluoro-2-methoxy-3-pyridyl]-2-methyl-chromane-5-sulfonamide] | 31
N#CCc1cc(F)c(NS(=O)(=O)c2cccc3c(Cl)cccc23)cc1F [Example 17, 5-chloro-N-[4-(cyanomethyl)-2,5-difluoro-phenyl]naphthalene-1-sulfonamide] | 88
COc1nc(OCC(F)F)c(F)cc1NS(=O)(=O)c1cccc2c(Cl)cccc12 [Example 18, 5-chloro-N-[6-(2,2-difluoroethoxy)-5-fluoro-2-methoxy-3-pyridyl]naphthalene-1-sulfonamide] | 43
COc1nc(OCC(F)F)c(F)cc1NS(=O)(=O)c1cccc2ccc(Cl)cc12 [Example 19, 7-chloro-N-[6-(2,2-difluoroethoxy)-5-fluoro-2-methoxy-3-pyridyl]naphthalene-1-sulfonamide] | 89
N#CCc1cc(F)c(NS(=O)(=O)c2cnc(O)c3c(Cl)cccc23)cc1F [Example 20, 8-chloro-N-[4-(cyanomethyl)-2,5-difluoro-phenyl]-1-hydroxy-isoquinoline-4-sulfonamide] | 327
N#CCc1cc(F)c(NS(=O)(=O)c2c[nH]c(=O)c3cc(Cl)ccc23)cc1F [Example 21, 7-chloro-N-[4-(cyanomethyl)-2,5-difluoro-phenyl]-1-keto-2H-isoquinoline-4-sulfonamide] | 174
COc1nc(NS(=O)(=O)c2c[nH]c(=O)c3cc(Cl)ccc23)ncc1OCCF [Example 22, 7-chloro-N-[5-(2-fluoroethoxy)-4-methoxy-pyrimidin-2-yl]-1-keto-2H-isoquinoline-4-sulfonamide] | 331
COc1nc(OC(F)F)c(F)cc1NS(=O)(=O)c1c[nH]c(=O)c2cc(Cl)ccc12 [Example 23, 7-chloro-N-[6-(difluoromethoxy)-5-fluoro-2-methoxy-3-pyridyl]-1-keto-2H-isoquinoline-4-sulfonamide] | 19
COc1nc(NS(=O)(=O)c2c[nH]c(=O)c3cc(Cl)ccc23)nc(OC)c1CC(F)F [Example 24, 7-chloro-N-[5-(2,2-difluoroethyl)-4,6-dimethoxy-pyrimidin-2-yl]-1-keto-2H-isoquinoline-4-sulfonamide] | 278
COc1nc(NS(=O)(=O)c2c[nH]c(=O)c3cc(Cl)ccc23)c(F)cc1OCC(F)F [Example 25, 7-chloro-N-[5-(2,2-difluoroethoxy)-3-fluoro-6-methoxy-2-pyridyl]-1-oxo-2H-isoquinoline-4-sulfonamide] | 50
COc1nc(OCC(F)F)c(F)cc1NS(=O)(=O)c1c[nH]c(=O)c2cc(Cl)ccc12 [Example 26] | 5
O=c1[nH]cc(S(=O)(=O)Nc2cc(F)c(OC(F)F)nc2OC(F)F)c2ccc(Cl)cc12 [Example 27, N-[2,6-bis(difluoromethoxy)-5-fluoro-3-pyridyl]-7-chloro-1-keto-2H-isoquinoline-4-sulfonamide] | 32
N#CCc1cc(F)c(NS(=O)(=O)c2c[nH]c(=O)c3nc(Cl)ccc23)cc1F [Example 28, 2-chloro-N-[4-(cyanomethyl)-2,5-difluoro-phenyl]-8-oxo-7H-1,7-naphthyridine-5-sulfonamide] | 955
COc1nc(OCC(F)F)c(F)cc1NS(=O)(=O)c1c[nH]c(=O)c2nc(Cl)ccc12 [Example 29, 2-chloro-N-[6-(2,2-difluoroethoxy)-5-fluoro-2-methoxy-3-pyridyl]-8-keto-7H-1,7-naphthyridine-5-sulfonamide] | 30
